Patent US7084136B2, “Drug composition antagonistic to both PGD2/TXA2 receptors” (Shionogi & Co., Ltd., priority 2000, dated 2006)

What was measured:
PGD2 receptor [1] = biological target: T1, PGD2 receptor (Homo sapiens, UniProt Q13258); assay: Binding activity to PGD2 receptor ([3H]PGD2, human platelet membrane fraction)
T1 construct: A suspension adjusted to contain the platelets at a final concentration of 5×10^8/ml was warmed at 37° C; endogenous in cells; host or cells: washed human platelets from a healthy volunteer
T1 sequence (Q13258 1-359): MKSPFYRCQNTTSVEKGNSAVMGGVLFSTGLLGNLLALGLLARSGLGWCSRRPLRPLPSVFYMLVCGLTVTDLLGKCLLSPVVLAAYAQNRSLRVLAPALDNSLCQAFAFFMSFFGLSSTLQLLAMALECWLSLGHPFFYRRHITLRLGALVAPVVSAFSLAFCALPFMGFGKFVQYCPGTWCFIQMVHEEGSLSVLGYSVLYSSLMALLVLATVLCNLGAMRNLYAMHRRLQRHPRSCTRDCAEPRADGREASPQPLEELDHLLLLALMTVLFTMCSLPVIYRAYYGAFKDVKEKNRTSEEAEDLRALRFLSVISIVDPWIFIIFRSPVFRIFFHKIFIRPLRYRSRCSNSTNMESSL
Method: Experiment 1 Binding Activity to PGD2 Receptor
(1) Preparation of Human Platelet Membrane Fraction
Blood was collected using a plastic syringe containing 3.8% sodium citrate from the vein of healthy volunteers (adult male and female), then put into a plastic test tube and mixed by slow-reversion. The sample was then centrifuged at 1800 rpm, for 10 min at room temperature, and the supernatant containing PRP (platelet-rich plasma) was collected. The PRP was re-centrifuged at 2300 rpm, for 22 min at room temperature to obtain platelets. The platelets were homogenized using a homogenizer (Ultra-Turrax) followed by centrifugation 3 times at 20,000 rpm, 10 min at 4° C. to obtain a platelet membrane fraction. After protein determination, the membrane fraction was adjusted to 2 mg/ml and preserved in a refrigerator at −80° C. until using for the binding test.
(2) Binding to PGD2 Receptor
To a binding-reaction solution (50 mM Tris/HCl, pH 7.4, 5 mM MgCl2) (0.2 ml) were added the human platelet membrane fraction (0.1 mg) and 5 nM [^3H]PGD2 (115 Ci/mmol), and the mixture was reacted at 4° C. for 90 min. After the reaction, the mixture was filtered through a glass fiber filter paper and washed several times with cooled physiological saline, then the radioactivity retained on the filter paper was measured. The specific-binding ratio was calculated by subtracting the non-specific binding ratio which is the radioactivity similarly measured in the presence of 10 μM PGD2 from the total binding. The inhibitory activity of each compound was expressed as the concentration required for 50% inhibition (IC50), which was determined by depicting a substitution curve by plotting the binding ratio (%) in the presence of each compound, where the binding ratio in the absence of a test compound is 100%.

PGD2 receptor [2] = biological target: T1, PGD2 receptor; assay: Antagonistic activity against PGD2 receptor using human platelet (inhibition of PGD2-induced cAMP increase); assay type: cell-based
Method: Experiment 3 Evaluation of Antagonistic Activity Against PGD2 Receptor
Receptor Using Human Platelet
Peripheral blood was collected from a healthy volunteer using a syringe in which 1/9 volume of a citric acid/dextrose solution was previously added. The sample was subjected to centrifugation at 1200 rpm for 10 min to obtain the supernatant (PRP: platelet rich plasma). The resultant PRP was washed 3 times with a washing buffer and the number of platelets was counted with a micro cell counter. A suspension adjusted to contain the platelets at a final concentration of 5×10^8/ml was warmed at 37° C., then subjected to the pre-treatment with 3-isobutyl-1-methylxanthine (0.5 mM) for 5 min. To the suspension was added a test compound diluted at various concentration, and 10 minutes later, 0.1 μM PGD2 was added to induce the reaction 2 minutes later, hydrochloric acid was added to terminate the reaction. The platelet was destroyed with an ultrasonic homogenizer. After centrifugation, the cAMP in the supernatant was determined by radioimmunoassay. PGD2 receptor antagonism of a drug was evaluated as follows: the inhibition rate regarding cAMP increased by the addition of PGD2 was determined at each concentration, and the concentration of the drug required for 50% inhibition (IC50) was calculated.

[3] = system: Eosinophil Number in Bronchoalveolar Lavage Fluid; assay: Antigen-induced increase in the eosinophil number in bronchoalveolar lavage fluid; assay type: in vivo, guinea pig; settings: for suppression of eosinophil infiltration: summary of Table 77 to Table 79, bronchoalveolar lavage fluid
Method: Antigen-Induced Increase in the Eosinophil Number in Bronchoalveolar Lavage Fluid.
Bronchoalveolar lavage was performed with 10 mL of saline, after the animals were sensitized and challenged with antigen. The number of total cells in the recovered fluid was stained with Türk and counted using hemocytometer. *: P<0.05, **:P<0.01 vs Vehicle(Dunnett's test), ^##: P<0.01 vs Vehicle(Student's t test). ( ): inhibition %.

[4] = comparative experiment in accordance with Experiment 1, read-out: Experiment 1 Antagonistic activity against PGD2 receptor IC50
[5] = comparative experiment in accordance with Experiment 3, read-out: Experiment 3 Antagonistic activity against PGD2 receptor IC50
[6] = 10 mg/kg, bronchoalveolar lavage fluid after antigen challenge

IC50 (PGD2 receptor [1]; [4]) [nM]	IC50 (PGD2 receptor [1]; human platelet membrane fraction, read-out: Binding activity to PGD2 receptor in human platelet membrane fraction IC50) [nM]	IC50 (PGD2 receptor [2]; [5]) [nM]	IC50 (PGD2 receptor [2]; human platelet, 0.1 μM PGD2, read-out: Inhibitory activity for the increase of cAMP caused by PGD2 in human platelet IC50) [nM]	Structure (SMILES)	Total cells [3, 6]	inhibition % (total cells in bronchoalveolar lavage fluid) [3, 6] [%]	suppression of eosinophil infiltration [3]	inhibition at 10 mg/kg ([3]; Cavia porcellus, Eosinophil, 10 mg/kg, bronchoalveolar lavage fluid after antigen challenge, read-out: inhibition % (total cells in bronchoalveolar lavage fluid) (converted)) [%]
1.8	1.8	63	63	Cc1cccn1S(=O)(=O)c1ccc(C(=O)N[C@@H]2[C@@H](CCCC/C=C/C(=O)O)C[C@H]3C[C@@H]2C3(C)C)s1 [II-7I-55a]	12.26 ± 1.54 × 10^6 cells/animal	80	significantly suppressed	–
> 10000	–	> 10000	–	O=C(O)CCC/C=C\C[C@H]1[C@@H]2CC[C@@H](C2)[C@@H]1NS(=O)(=O)c1ccccc1 [A, reference compound]	15.20 ± 2.20 × 10^6 cells/animal	–	did not show any inhibitory actions	-12
